Settings: Gas, Buoyancy - hydrostatic balance with magnetic suspension - one sinker

C=C(F)C(F)(F)F [2,3,3,3-tetrafluoro-1-propene]
Settings | mass density [kg/m3]
252.64 K, 70 kPa | 3.88
252.64 K, 110 kPa | 6.265
252.64 K, 124 kPa | 7.097
262.07 K, 81 kPa | 4.341
262.08 K, 113 kPa | 6.19
262.08 K, 136 kPa | 7.456
262.08 K, 157 kPa | 8.696
262.08 K, 169 kPa | 9.424
270.18 K, 105 kPa | 5.505
270.18 K, 132 kPa | 6.952
270.18 K, 172 kPa | 9.215
270.18 K, 232 kPa | 12.71
270.19 K, 256 kPa | 14.125
279.64 K, 75 kPa | 3.732
279.65 K, 118 kPa | 5.957
279.65 K, 168 kPa | 8.6
279.65 K, 219 kPa | 11.398
279.66 K, 261 kPa | 13.822
279.66 K, 302 kPa | 16.231
279.67 K, 352 kPa | 19.153
289.17 K, 279 kPa | 14.228
289.17 K, 433 kPa | 23.141
289.18 K, 186 kPa | 9.245
289.18 K, 223 kPa | 11.205
289.18 K, 344 kPa | 17.869
289.18 K, 502 kPa | 27.513
289.19 K, 84 kPa | 4.052
289.19 K, 143 kPa | 7.017
298.63 K, 249 kPa | 12.098
298.63 K, 312 kPa | 15.415
298.63 K, 363 kPa | 18.154
298.63 K, 419 kPa | 21.272
298.63 K, 599 kPa | 32.147
298.63 K, 647 kPa | 35.336
298.64 K, 134 kPa | 6.319
298.64 K, 204 kPa | 9.779
308.12 K, 125 kPa | 5.711
308.12 K, 242 kPa | 11.284
308.13 K, 188 kPa | 8.693
308.13 K, 282 kPa | 13.311
308.13 K, 367 kPa | 17.655
308.13 K, 460 kPa | 22.624
308.14 K, 517 kPa | 25.797
308.14 K, 551 kPa | 27.714
308.14 K, 608 kPa | 31.08
308.14 K, 741 kPa | 39.419
317.63 K, 418 kPa | 19.56
317.63 K, 514 kPa | 24.547
317.63 K, 613 kPa | 30.022
317.63 K, 892 kPa | 46.934
317.64 K, 202 kPa | 9.037
317.64 K, 351 kPa | 16.204
317.66 K, 116 kPa | 5.083
317.66 K, 166 kPa | 7.365
327.25 K, 522 kPa | 23.936
327.25 K, 597 kPa | 27.809
327.25 K, 825 kPa | 40.447
327.25 K, 1152 kPa | 61.545
327.26 K, 299 kPa | 13.167
327.26 K, 372 kPa | 16.57
327.26 K, 463 kPa | 20.996
327.27 K, 97 kPa | 4.113
327.27 K, 153 kPa | 6.549
327.27 K, 235 kPa | 10.227
336.67 K, 110 kPa | 4.549
336.67 K, 321 kPa | 13.728
336.67 K, 424 kPa | 18.45
336.67 K, 501 kPa | 22.051
336.67 K, 618 kPa | 27.852
336.67 K, 667 kPa | 30.331
336.67 K, 693 kPa | 31.586
336.67 K, 873 kPa | 41.236
336.67 K, 1254 kPa | 64.685
336.67 K, 1683 kPa | 100.038
336.68 K, 237 kPa | 10.013
345.74 K, 1557 kPa | 81.658
345.74 K, 1910 kPa | 112.152
345.75 K, 517 kPa | 21.914
345.75 K, 739 kPa | 32.609
345.75 K, 886 kPa | 40.193
345.75 K, 1229 kPa | 59.662
345.76 K, 145 kPa | 5.863
345.76 K, 305 kPa | 12.598
